In patent publication US9115092B2, “Substituted quinazoline and pyrido-pyrimidine derivatives” (Asana Biosciences, LLC, priority 2010, dated 2015) one finds IC50 data, which are given here for 21 molecules.

Experiment [1] concerns the target T1, PI3Kα (wild-type), P110/P85α (Homo sapiens, UniProt P42336).
T1 construct: made in house; host or cells: SF9 insect cells
The experiment is described as follows: PI3 Kinase TR-FRET assay, PI3Kα (wild-type). Type of experiment: biochemical. In a few lines: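 TR-FRET read-out of PIP3 formation via biotin-PIP3 displacement (665/615 nm ratio) gave IC50 curves. Enzyme: 5 ng wild-type P110/P85α from Sf9 cells, 60 min RT with compound and PIP2 (MgCl2 40 mM, DTT 5 mM), then 30 min RT kinase reaction at 10 μM ATP and 10 μM PIP2.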
On the technique in general: Time-resolved FRET reads energy transfer from a long-lived donor to a nearby acceptor.

Experiment [2] has as its target T2, mTOR kinase (Homo sapiens, UniProt P42345).
T2 construct: purchased Millipore, USA
In words: mTOR kinase TR-FRET assay. The conditions noted are these: read-out: mTO R. The experiment is classed as biochemical. The essentials:
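TR-FRET read-out (340 nm excitation, 615/665 nm emission) of Thr389 phosphorylation of a ULight-labeled p70 S6K peptide (50 nM) by mTOR, 20 μM ATP, 60 min room temperature after 60 min compound preincubation. Buffer HEPES pH 7.5 with MnCl2, EGTA; IC50 by sigmoidal dose-response.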

Experiment [3] deals with PC3 cells. The experiment is described as follows: XTT assay for cell viability, PC3 cells. Type of experiment: cell-based, human. The conditions noted are these: Homo sapiens, PC-3, cell viability. Here is the method: Using a commercial kit from Sigma Aldrich (Catalog #X34251) and following its protocol, PC3 cells in the log phase of growth were employed and seeded at an optimal density of 1000 cell/well on to 96 well plates and incubated for 24 h followed by the addition of compounds of formula (I) in serial dilutions. Compound dilutions were made in DMSO. The cells were incubated with the compounds of formula (I) for 96 h and XTT tetrazolium dye (Sigma, USA) was subsequently added and incubated at 37° C. After the color formation, absorbance was measured at 465 nm in a Spectramax® Gemini spectrophotometer. EC50 values were calculated using a sigmoidal dose response curve fit in GraphPad Prism® v5 software. The tested compounds of formula (I) which caused inhibition of PC3 cell proliferation as determined by this assay protocol are shown in Table 2.
A general note: Tetrazolium dyes change colour on reduction, which living cells bring about.

T1 sequence (P42336 whole entry): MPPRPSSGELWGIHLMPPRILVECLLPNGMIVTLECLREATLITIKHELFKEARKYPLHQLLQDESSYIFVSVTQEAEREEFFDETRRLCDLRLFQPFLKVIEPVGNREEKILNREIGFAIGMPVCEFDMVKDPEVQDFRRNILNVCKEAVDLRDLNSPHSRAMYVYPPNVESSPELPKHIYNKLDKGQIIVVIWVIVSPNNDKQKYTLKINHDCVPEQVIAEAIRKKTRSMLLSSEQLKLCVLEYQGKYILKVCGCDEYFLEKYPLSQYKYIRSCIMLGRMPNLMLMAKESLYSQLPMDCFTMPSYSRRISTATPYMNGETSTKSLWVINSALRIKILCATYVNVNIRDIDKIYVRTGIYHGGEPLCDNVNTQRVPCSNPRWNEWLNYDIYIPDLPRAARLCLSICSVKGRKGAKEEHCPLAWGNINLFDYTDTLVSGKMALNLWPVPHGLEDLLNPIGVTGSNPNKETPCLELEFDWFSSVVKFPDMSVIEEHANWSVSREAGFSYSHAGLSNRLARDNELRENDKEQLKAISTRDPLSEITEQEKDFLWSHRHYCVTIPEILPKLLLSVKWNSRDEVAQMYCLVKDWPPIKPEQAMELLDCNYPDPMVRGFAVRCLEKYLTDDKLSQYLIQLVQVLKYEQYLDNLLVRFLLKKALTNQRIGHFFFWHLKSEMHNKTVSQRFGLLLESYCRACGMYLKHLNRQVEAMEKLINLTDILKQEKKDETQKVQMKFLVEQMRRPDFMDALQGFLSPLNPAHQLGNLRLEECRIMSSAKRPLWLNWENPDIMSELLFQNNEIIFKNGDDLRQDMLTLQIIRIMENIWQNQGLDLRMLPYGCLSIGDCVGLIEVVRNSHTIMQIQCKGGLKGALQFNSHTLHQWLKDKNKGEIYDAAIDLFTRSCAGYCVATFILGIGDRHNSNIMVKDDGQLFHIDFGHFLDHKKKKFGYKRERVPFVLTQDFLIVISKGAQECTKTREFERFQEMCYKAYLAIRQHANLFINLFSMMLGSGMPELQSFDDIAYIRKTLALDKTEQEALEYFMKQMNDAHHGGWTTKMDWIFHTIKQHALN
T1 sequence (P27986 whole entry partner): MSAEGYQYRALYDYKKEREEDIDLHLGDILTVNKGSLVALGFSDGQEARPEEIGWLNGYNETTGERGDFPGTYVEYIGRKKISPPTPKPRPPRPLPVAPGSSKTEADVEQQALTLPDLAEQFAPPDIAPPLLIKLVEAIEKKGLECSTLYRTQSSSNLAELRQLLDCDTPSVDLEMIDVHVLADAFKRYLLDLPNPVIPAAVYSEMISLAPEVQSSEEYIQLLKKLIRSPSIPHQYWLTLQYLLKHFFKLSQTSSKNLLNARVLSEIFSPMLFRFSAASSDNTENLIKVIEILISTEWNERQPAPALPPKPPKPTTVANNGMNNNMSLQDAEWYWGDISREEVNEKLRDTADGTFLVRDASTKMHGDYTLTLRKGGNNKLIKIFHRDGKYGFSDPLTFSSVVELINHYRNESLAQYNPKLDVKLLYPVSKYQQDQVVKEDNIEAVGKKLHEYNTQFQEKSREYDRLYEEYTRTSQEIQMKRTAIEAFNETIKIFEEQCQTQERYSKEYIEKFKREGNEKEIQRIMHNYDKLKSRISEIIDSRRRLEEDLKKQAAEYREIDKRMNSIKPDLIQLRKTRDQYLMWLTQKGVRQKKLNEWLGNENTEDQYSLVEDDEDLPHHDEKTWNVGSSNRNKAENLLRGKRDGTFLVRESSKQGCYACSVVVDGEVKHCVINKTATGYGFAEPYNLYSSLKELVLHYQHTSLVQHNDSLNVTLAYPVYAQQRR

With `CN(C)C(=O)c1ccc(NC(=O)Nc2ccc(-c3nc(N4CCOCC4)c4ccc(-c5cccc(CO)c5)cc4n3)cc2)cc1` [Example 45, 4-(3-{4-[7-(3-hydroxymethyl-phenyl)-4-morpholin-4-yl-quinazolin-2-yl]-phenyl}-ureido)-N,N-dimethyl-benzamide], the IC50 was less than 50 nM in experiment [1], less than 50 nM in experiment [2] and less than 100 nM in experiment [3].
For `CN(C)C(=O)c1ccc(NC(=O)Nc2ccc(-c3nc(N4CCOCC4)c4ccc(-c5cncnc5)cc4n3)cc2)cc1F` [Example 240, 2-fluoro-N,N-dimethyl-4-(3-(4-(4-morpholino-7-(pyrimidin-5-yl)quinazolin-2-yl)phenyl)ureido)-benzamide], the IC50 is less than 50 nM in experiment [1], less than 50 nM in experiment [2] and 201 to 10000 nM in experiment [3].
Regarding `CNC(=O)c1ccc(NC(=O)Nc2ccc(-c3nc(N4CCOCC4)c4ccc(-c5ccco5)cc4n3)cc2)cc1` [Example 233, 4-(3-(4-(7-(furan-2-yl)-4-morpholine-quinazolin-2-yl)phenyl)ureido)-N-methyl-benzamide], the IC50 in experiment [1] was less than 50 nM; in experiment [2] it was 50 to 200 nM; in experiment [3], less than 100 nM.
`Cc1ccc(-c2ccc3c(N4CCOCC4)nc(-c4ccc(NC(=O)Nc5ccc(C(=O)N6CCN(C)CC6)cc5)cc4)nc3c2)o1` [Example 70, 1-{4-[7-(5-methyl-furan-2-yl)-4-morpholin-4-yl-quinazolin-2-yl]-phenyl}-3-[4-(4-methyl-piperazine-1-carbonyl)-phenyl]-urea]: the figures for the IC50 in experiment [1], in experiment [2] and in experiment [3] were 50 to 200 nM, 50 to 200 nM and 501 to 5000 nM, respectively.
`CN(C)C(=O)c1ccc(NC(=O)Nc2ccc(-c3nc(N4CCOCC4)c4cc(F)c(-c5cncc(S(C)(=O)=O)c5)cc4n3)cc2)cc1` [Example 38, 4-(3-{4-[6-fluoro-7-(5-methanesulfonyl-pyridin-3-yl)-4-morpholin-4-yl-quinazolin-2-yl]-phenyl}-ureido)-N,N-dimethyl-benzamide]: the figures for the IC50 in experiment [1], in experiment [2] and in experiment [3] were less than 50 nM, less than 50 nM and less than 100 nM, respectively.
In the case of `COc1ncc(-c2ccc3c(N4CCOCC4)nc(-c4ccc(NC(=O)Nc5ccc(C(=O)N(C)C)cc5)cc4)nc3c2)cn1` [Example 75, 4-(3-{4-[7-(2-methoxy-pyrimidin-5-yl)-4-morpholin-4-yl-quinazolin-2-yl]-phenyl}-ureido)-N,N-dimethyl-benzamide], the results for the IC50 in experiment [1], in experiment [2] and in experiment [3] were less than 50 nM, less than 50 nM and less than 100 nM, respectively.
On to `Cc1ccc(-c2ccc3c(N4CCOCC4)nc(-c4ccc(NC(=O)Nc5ccc(C(=O)N6CCC(N(C)C)C6)cc5)cc4)nc3c2)o1` (stereo in doubt) [Example 195, (S)-1-(4-(3-(dimethylamino)pyrrolidine-1-carbonyl)phenyl)-3-(4-(7-(5-methylfuran-2-yl)-4-morpholino-quinazolin-2-yl)phenyl)urea], for which the IC50 in experiment [1] was 50 to 200 nM; in experiment [2] it was less than 50 nM; in experiment [3], less than 100 nM.
For `CN(C)C(=O)c1ccc(NC(=O)Nc2ccc(-c3nc(N4CCOCC4)c4ncc(-c5cnn(C)c5)cc4n3)cc2F)cn1` [Example 124, 5-(3-(2-fluoro-4-(7-(1-methyl-1H-pyrazol-4-yl)-4-morpholino-pyrido[3,2-d]pyrimidin-2-yl)phenyl)ureido)-N,N-dimethylpicolinamide], the IC50 in experiment [1] is less than 50 nM; in experiment [2] it was less than 50 nM; in experiment [3], 201 to 10000 nM.
As to `Cc1noc(C)c1-c1cnc2c(N3CCOCC3)nc(-c3ccc(NC(=O)Nc4ccc(C(=O)N(C)C)cc4)c(F)c3)nc2c1` [Example 135, 4-(3-(4-(7-(3,5-dimethylisoxazol-4-yl)-4-morpholino-pyrido[3,2-d]pyrimidin-2-yl)-2-fluorophenyl)ureido)-N,N-dimethyl-benzamide], the IC50 in experiment [1] was less than 50 nM; in experiment [2], less than 50 nM; in experiment [3] it was 201 to 10000 nM.
Regarding `CN(C)C(=O)c1ccc(NC(=O)Nc2ccc(-c3nc(N4CCOCC4)c4cccc(-c5cccc(O)c5)c4n3)cc2)cc1` [Example 5, 4-(3-{4-[8-(3-Hydroxy-phenyl)-4-morpholin-4-yl-quinazolin-2-yl]-phenyl}-ureido)-N,N-dimethyl-benzamide], the IC50 was 50 to 200 nM in experiment [1], less than 50 nM in experiment [2] and less than 100 nM in experiment [3].
For `CN(C)C(=O)c1ccc(NC(=O)Nc2ccc(-c3nc(N4CCOCC4)c4cc(F)c(-c5cccnc5)cc4n3)cc2)cc1` [Example 29, 4-{3-[4-(6-fluoro-4-morpholin-4-yl-7-pyridin-3-yl-quinazolin-2-yl)-phenyl]-ureido}-N,N-dimethyl-benzamide], in that order: less than 50 nM, less than 50 nM and less than 100 nM.
For the molecule `CN(C)C(=O)c1ccc(NC(=O)Nc2ccc(-c3nc(N4CCOCC4)c4ccc(-c5cccnc5F)cc4n3)cc2)cc1F` [Example 255, 2-fluoro-4-(3-(4-(7-(2-fluoropyridin-3-yl)-4-morpholino-quinazolin-2-yl)phenyl)ureido)-N,N-dimethyl-benzamide], the results for the IC50 in experiment [1], in experiment [2] and in experiment [3] were 50 to 200 nM, less than 50 nM and 201 to 10000 nM, respectively.
Regarding `CN1CCN(C(=O)c2ccc(NC(=O)Nc3ccc(-c4nc(N5CCOCC5)c5ccc(-c6cccc(S(C)(=O)=O)c6)cc5n4)cc3)cc2)CC1` [Example 32, 1-(4-(4-methylpiperazine-1-carbonyl)phenyl)-3-(4-(7-(3-(methylsulfonyl)phenyl)-4-morpholino-quinazolin-2-yl)phenyl)urea], the IC50 in experiment [1] was less than 50 nM; in experiment [2] it was less than 50 nM; in experiment [3] it was 501 to 5000 nM.
As to `CC1CN(c2nc(-c3ccc(NC(=O)Nc4ccc(C(=O)N(C)C)cc4)cc3)nc3cc(-c4cncnc4)ccc23)CCO1` (stereo not drawn) [Example 138, N,N-dimethyl-4-(3-(4-(4-(2-methylmorpholino)-7-(pyrimidin-5-yl)quinazolin-2-yl)phenyl)ureido)-benzamide], the values for the IC50 in experiment [1], in experiment [2] and in experiment [3] were less than 50 nM, less than 50 nM and 201 to 10000 nM, respectively.
Take `COc1ccc(-c2ccc3c(N4CCOCC4)nc(-c4ccc(NC(=O)Nc5ccc(C(=O)N(C)C)cc5)cc4)nc3c2)cn1` [Example 60, 4-(3-{4-[7-(6-methoxy-pyridin-3-yl)-4-morpholin-4-yl-quinazolin-2-yl]-phenyl}-ureido)-N,N-dimethyl-benzamide]: the IC50 in experiment [1] was less than 50 nM; in experiment [2] it was less than 50 nM; in experiment [3], 100 to 500 nM.
As for `CN(C)C(=O)c1ccc(NC(=O)Nc2ccc(-c3nc(N4CCOCC4)c4ccc(-c5cccc(S(C)(=O)=O)c5)cc4n3)c(F)c2)cc1` [Example 245, 4-(3-(3-fluoro-4-(7-(3-(methylsulfonyl)phenyl)-4-morpholino-quinazolin-2-yl)phenyl)ureido)-N,N-dimethyl-benzamide], the IC50 is less than 50 nM in experiment [1], 50 to 200 nM in experiment [2] and 201 to 10000 nM in experiment [3].
Regarding `CN1CCN(C(=O)c2ccc(NC(=O)Nc3ccc(-c4nc(N5CCOCC5)c5cc(F)c(-c6cccnc6)cc5n4)cc3)cc2)CC1` [Example 4, 1-[4(6-Fluoro-4-morpholin-4-yl-7-pyridin-3-yl-quinazolin-2-yl)-phenyl]-3-[4-(4-methyl-piperazine-1-carbonyl)-phenyl]-urea], the IC50 in experiment [1] is less than 50 nM; in experiment [2] it was less than 50 nM; in experiment [3], less than 100 nM.
Take `CN1CCN(C(=O)c2ccc(NC(=O)Nc3ccc(-c4nc(N5CCOCC5)c5ccc(-c6ccsc6)cc5n4)cc3)cc2)CC1` [Example 37, 1-[4-(4-methyl-piperazine-1-carbonyl)-phenyl]-3-[4-(4-morpholin-4-yl-7-thiophen-3-yl-quinazolin-2-yl)-phenyl]-urea]: the IC50 in experiment [1] fell in the range of 50 to 200 nM; in experiment [2] it was 50 to 200 nM; in experiment [3] it was 100 to 500 nM.
With `CN1CCN(C(=O)c2ccc(NC(=O)Nc3ccc(-c4nc(N5CCOCC5)c5ccc(-c6cncnc6)cc5n4)cc3)cc2)CC1` [Example 79, 1-[4-(4-methyl-piperazine-1-carbonyl)-phenyl]-3-[4-(4-morpholin-4-yl-7-pyrimidin-5-yl-quinazolin-2-yl)-phenyl]-urea], the values for the IC50 in experiment [1], in experiment [2] and in experiment [3] were 201 to 10000 nM, less than 50 nM and 501 to 5000 nM, respectively.
`CN(C)C(=O)c1ccc(NC(=O)Nc2ccc(-c3nc(N4CCOCC4)c4ccc(-c5cnc(N(C)C)nc5)cc4n3)cc2)cc1` [Example 226, 4-(3-(4-(7-(2-(dimethylamino)pyrimidin-5-yl)-4-morpholino-quinazolin-2-yl)phenyl)ureido)-N,N-dimethyl-benzamide]: the figures for the IC50 in experiment [1], in experiment [2] and in experiment [3] were less than 50 nM, less than 50 nM and 201 to 10000 nM, respectively.
Turning to `CN(C)C(=O)c1ccc(NC(=O)Nc2ccc(-c3nc(N4CCOCC4)c4ncc(-c5cncnc5)cc4n3)cc2)cc1` [Example 9, N,N-Dimethyl-4-{3-[4-(4-morpholin-4-yl-7-pyrimidin-5-yl-pyrido[3,2-d]-pyrimidin-2-yl)-phenyl]-ureido}-benzamide], the IC50 was less than 50 nM in experiment [1], less than 50 nM in experiment [2] and less than 100 nM in experiment [3].
